Source: patent US6825178B1, “Methods and products for treating pseudomonas infection” (The Brigham and Women's Hospital, Inc., priority 1996, dated 2004)
Marks after values point to notes of the source that are not given here.

System: A549 cells
Test: Inhibition of internalization of P. aeruginosa strain PAO1 into A549 cells
Assay type: cell-based, human
Settings: 1 nM peptide
Procedure: WI-38 (human diploid lung cell line, ATCC. no. CCL-75) and A549 cells (human lung carcinoma cells, ATCC no. CCL-185) were obtained from the ATCC and grown according to their instructions.
Bacterial ingestion assay. Cells were released from monolayers in tissue culture flasks by 5 min. of incubation with trypsin-versene mixture (BioWhitaker, Walkersville, Md.), washed, counted and seeded into 96-well tissue culture plates at 10^5 cells/well in supplemented F-12 medium and incubated at 37° C. in 5% CO2. Fresh cultures of P. aeruginosa grown overnight at 37° C. on a tryptic soy agar plate were suspended in supplemented F-12 medium to prepare the bacterial inoculum. Then 10^6 colony forming units (cfu) of the bacterial inoculum were added per well of 10^5 epithelial cells. […] Three to 9 replicates were obtained per point, and analyzed using analysis of variance (ANOVA) and the Fisher PLSD statistic to determine pairwise differences.
Inhibition of ingestion in the presence of membranes isolated from C127 cells, monoclonal antibodies to extracellular domains of CFTR, or synthetic peptides corresponding to the first or fourth extracellular domains of CFTR was evaluated by adding these materials to the bacteria prior to adding them directly into wells for evaluation of bacterial uptake. […]

Sequence | Mean cfu (standard deviation) of P. aeruginosa internalized
GRIIASYDPDNKEER (listed as Homo Sapiens) [First domain] | 3.2833 × 10^4 (4.32 × 10^3)^a cfu
LWLLGNTPLQDKGNSTHSRNNSYAVIITSTS (listed as Homo Sapiens) [Fourth domain, reference compound] | 8.7333 × 10^4 (1.1506 × 10^4) cfu
